Results from article PMC5762309 (Oncotarget, 2017).

Tests used:
Format in all cases: cell-based
Conditions in all cases: Mus musculus, 72 hours, CellTiter-Glo
BaF3-tel-KIT-V654A = test: Anti-proliferation assay, transformed BaF3 cells
Excerpt: (§1) Retroviral constructs for BaF3-KIT mutants were made based on the pMSCVpuro (Clontech) backbone. For TEL-KIT vector, the first 1 kb of human TEL gene with an artificial myristoylation sequence ([…]) was cloned into the pMSCVpuro retroviral vector, followed by a 3xFLAG tag sequence. Then, the kinase domain coding sequence of KIT was inserted in-frame between TEL and 3xFLAG sequences. For full-length expression vectors, the coding sequences of KIT variants were directly cloned in pMSCVpuro vector with a 3xFLAG tag at the C-terminal end. All mutagenesis was performed using the QuikChange Site-Directed Mutagenesis Kit (Stratagene) following the manufacturer’s instructions. Retrovirus was packaged in HEK293T cells by transfecting KIT-containing MSCV vectors together with two helper plasmids. Virus supernatants were harvested 48 h after transfection and filtered before infection. Then BaF3 cells were infected with harvested virus supernatants using spinoculation protocol, and stable cell lines were obtained by puromycin selection for 48 h. The IL-3 concentrations in the culture medium were gradually withdrawn until cells were able to grow in the absence of IL-3.
(§2) Cells were grown in 96-well culture plates (2500/well). The compounds of various concentrations were added into the plates. Cell proliferation was determined after treatment with compounds for 72 hours. Cell viability was measured using the CellTiter–Glo assay (Promega, USA), according to the manufacturer’s instructions, and luminescence was measured in a multi-label reader (Envision, PerkinElmer, USA). Data were normalized to control groups (DMSO) and represented by the mean of three independent measurements with standard error <20%. GI50 values were calculated using Prism 5.0 (GraphPad Software, San Diego, CA).

BaF3-tel-KIT-N822K = test: Anti-proliferation assay, transformed BaF3 cells
Excerpt: as §1, §2

BaF3-tel-KIT-T670I = test: Anti-proliferation assay, transformed BaF3 cells
Excerpt: as §1, §2

BaF3-tel-KIT-V559D = test: Anti-proliferation assay, transformed BaF3 cells
Excerpt: as §1, §2

BaF3-tel-KIT-D816V = test: Anti-proliferation assay, transformed BaF3 cells
Excerpt: as §1, §2

BaF3-tel-KIT = test: Anti-proliferation assay, transformed BaF3 cells
Excerpt: as §1, §2

BaF3-tel-KIT-T670I-V559D = test: Anti-proliferation assay, transformed BaF3 cells
Excerpt: as §1, §2

BaF3-tel-KIT-V559D-V654A = test: Anti-proliferation assay, transformed BaF3 cells
Excerpt: as §1, §2

BaF3-tel-KIT-L576P = test: Anti-proliferation assay, transformed BaF3 cells
Excerpt: as §1, §2

BaF3-tel-KIT-A829P = test: Anti-proliferation assay, transformed BaF3 cells
Excerpt: as §1, §2

BaF3 = test: Anti-proliferation assay, parental BaF3 cells
Protocol: The KIT mutant isogenic BaF3 cells lines and Colo320DM cells were cultured in RPMI 1640 media (Corning, USA) with 10% fetal bovine serum (FBS) and supplemented with 2% L-glutamine 1% penicillin/streptomycin, the BaF3 cell line was cultured in RPMI 1640 media (Corning, USA) with 1% IL-3, 10% fetal bovine serum (FBS) and supplemented with 2% L-glutamine 1% penicillin/streptomycin. All cell lines were maintained in culture media at 37°C with 5% CO2.

Work on `CCN(CC)CCNC(=O)c1c(C)[nH]c(/C=C2\C(=O)Nc3ccc(F)cc32)c1C` [Sunitinib, reference compound] yielded a GI50 (BaF3-tel-KIT-V654A) of 2 nM, a GI50 (BaF3-tel-KIT-N822K) of 120 nM and a GI50 (BaF3-tel-KIT-T670I) of 1 nM. It also gave a GI50 (BaF3-tel-KIT-V559D) of less than 0.3 nM, a GI50 (BaF3-tel-KIT-D816V) of 420 nM and a GI50 (BaF3-tel-KIT) of 60 nM. For the same compound, the GI50 (BaF3-tel-KIT-T670I-V559D) was 7 nM, the GI50 (BaF3-tel-KIT-V559D-V654A) was 6 nM and the GI50 (BaF3-tel-KIT-L576P) was 3 nM. For the same compound, the GI50 (BaF3-tel-KIT-A829P) was 130 nM and the GI50 (BaF3) was 1300 nM.
